Reference: article PMC5761851, “Application of a phenotypic drug discovery strategy to identify biological and chemical starting points for inhibition of TSLP production in lung epithelial cells” (PLoS ONE, 2018)

Legend:
Assay in all cases: kinase selectivity panel
Type in all cases: biochemical
[1] = target: T1, Abl (Homo sapiens, UniProt P00519); settings: read-out: percentage of control activity (POC), Abl
T1 construct: purchased Eurofins Pharma Discovery Services (KinaseProfiler; Cerep BioPrint panel)
T1 sequence (P00519 whole entry): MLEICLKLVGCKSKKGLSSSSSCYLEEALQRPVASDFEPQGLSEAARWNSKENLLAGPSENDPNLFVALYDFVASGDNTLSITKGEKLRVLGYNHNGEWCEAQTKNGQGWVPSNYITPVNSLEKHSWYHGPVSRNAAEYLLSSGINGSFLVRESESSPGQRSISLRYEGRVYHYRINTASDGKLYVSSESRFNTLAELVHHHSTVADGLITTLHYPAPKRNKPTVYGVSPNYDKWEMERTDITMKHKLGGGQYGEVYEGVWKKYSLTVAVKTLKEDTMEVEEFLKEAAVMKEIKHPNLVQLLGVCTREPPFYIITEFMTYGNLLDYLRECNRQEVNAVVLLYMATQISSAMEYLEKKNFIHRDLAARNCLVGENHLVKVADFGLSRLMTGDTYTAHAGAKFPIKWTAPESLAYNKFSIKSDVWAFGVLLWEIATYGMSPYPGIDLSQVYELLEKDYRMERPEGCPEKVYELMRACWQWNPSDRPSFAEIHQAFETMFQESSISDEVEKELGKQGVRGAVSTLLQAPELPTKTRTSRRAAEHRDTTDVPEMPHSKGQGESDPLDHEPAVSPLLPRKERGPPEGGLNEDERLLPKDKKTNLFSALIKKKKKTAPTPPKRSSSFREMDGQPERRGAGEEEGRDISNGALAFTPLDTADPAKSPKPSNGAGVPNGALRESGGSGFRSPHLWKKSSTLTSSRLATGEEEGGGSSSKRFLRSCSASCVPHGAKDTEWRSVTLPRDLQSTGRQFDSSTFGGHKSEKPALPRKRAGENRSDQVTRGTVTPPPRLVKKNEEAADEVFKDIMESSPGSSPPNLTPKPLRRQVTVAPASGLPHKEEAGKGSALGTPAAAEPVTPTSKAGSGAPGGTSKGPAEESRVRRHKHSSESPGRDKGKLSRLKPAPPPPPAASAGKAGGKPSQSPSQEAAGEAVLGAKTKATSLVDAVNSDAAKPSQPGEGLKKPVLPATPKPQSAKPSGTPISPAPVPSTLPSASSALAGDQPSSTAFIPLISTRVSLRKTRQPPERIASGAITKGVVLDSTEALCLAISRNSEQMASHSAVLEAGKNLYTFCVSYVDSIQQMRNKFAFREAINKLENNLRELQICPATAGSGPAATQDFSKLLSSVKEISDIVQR
How it was run: (§1)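 First, 125 representative kinases were exposed to 10 μM compound in duplicate; next, selected activities were titrated over 9 concentrations in duplicate, and IC50 values were calculated.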

[2] = target: T2, CDK7/cyclinH/MAT1 (Homo sapiens, UniProt P50613); settings: read-out: percentage of control activity (POC), CDK7/cyclinH/MAT1
T2 construct: purchased Eurofins Pharma Discovery Services (KinaseProfiler; Cerep BioPrint panel)
T2 sequence (P50613 whole entry): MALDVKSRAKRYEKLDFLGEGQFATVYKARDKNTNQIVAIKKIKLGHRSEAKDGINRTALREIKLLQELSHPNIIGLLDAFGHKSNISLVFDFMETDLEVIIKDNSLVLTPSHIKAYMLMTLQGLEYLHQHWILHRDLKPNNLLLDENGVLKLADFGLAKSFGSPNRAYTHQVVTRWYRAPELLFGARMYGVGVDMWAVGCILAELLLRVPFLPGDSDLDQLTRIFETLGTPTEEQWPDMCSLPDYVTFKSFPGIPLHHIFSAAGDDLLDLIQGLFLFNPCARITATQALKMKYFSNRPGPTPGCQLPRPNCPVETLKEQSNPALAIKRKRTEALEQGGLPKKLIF
T2 sequence (P51946 whole entry partner): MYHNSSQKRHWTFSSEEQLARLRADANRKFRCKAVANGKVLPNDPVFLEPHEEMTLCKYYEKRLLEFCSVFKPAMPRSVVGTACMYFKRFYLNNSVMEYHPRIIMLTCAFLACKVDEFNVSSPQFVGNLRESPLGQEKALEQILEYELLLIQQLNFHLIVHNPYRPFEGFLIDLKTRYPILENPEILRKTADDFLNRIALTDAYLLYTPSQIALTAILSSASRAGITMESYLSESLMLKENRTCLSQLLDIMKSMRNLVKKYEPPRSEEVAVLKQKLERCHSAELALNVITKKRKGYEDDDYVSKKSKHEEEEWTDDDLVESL
T2 sequence (P51948 whole entry partner): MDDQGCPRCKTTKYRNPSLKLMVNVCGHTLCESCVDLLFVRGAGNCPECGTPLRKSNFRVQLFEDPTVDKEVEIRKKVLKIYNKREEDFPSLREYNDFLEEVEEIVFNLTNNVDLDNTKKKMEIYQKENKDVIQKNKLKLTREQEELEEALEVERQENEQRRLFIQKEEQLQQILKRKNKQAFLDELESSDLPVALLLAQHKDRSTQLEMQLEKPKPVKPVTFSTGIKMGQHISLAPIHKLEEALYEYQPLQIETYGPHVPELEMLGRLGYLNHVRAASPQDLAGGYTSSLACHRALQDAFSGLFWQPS
How it was run: as §1

[3] = target: T3, Fyn (Homo sapiens, UniProt P06241); settings: read-out: percentage of control activity (POC), Fyn
T3 construct: purchased Eurofins Pharma Discovery Services (KinaseProfiler; Cerep BioPrint panel)
T3 sequence (P06241 whole entry): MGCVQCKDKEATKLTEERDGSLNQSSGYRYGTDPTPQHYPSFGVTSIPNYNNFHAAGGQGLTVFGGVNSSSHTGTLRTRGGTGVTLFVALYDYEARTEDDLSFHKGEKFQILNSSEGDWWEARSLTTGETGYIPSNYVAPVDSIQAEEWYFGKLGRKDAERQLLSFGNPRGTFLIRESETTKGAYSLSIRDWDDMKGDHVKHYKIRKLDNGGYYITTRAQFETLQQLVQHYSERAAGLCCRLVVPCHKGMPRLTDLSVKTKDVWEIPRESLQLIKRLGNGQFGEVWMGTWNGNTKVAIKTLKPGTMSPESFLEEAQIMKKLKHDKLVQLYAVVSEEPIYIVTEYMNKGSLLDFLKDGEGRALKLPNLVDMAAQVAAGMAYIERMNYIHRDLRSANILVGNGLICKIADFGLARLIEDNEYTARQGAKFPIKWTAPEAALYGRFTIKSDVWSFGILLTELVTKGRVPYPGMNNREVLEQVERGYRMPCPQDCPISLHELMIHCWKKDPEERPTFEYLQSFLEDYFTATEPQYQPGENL
How it was run: as §1

[4] = target: T4, JAK3 (Homo sapiens, UniProt P52333); settings: read-out: percentage of control activity (POC), JAK3
T4 construct: purchased Eurofins Pharma Discovery Services (KinaseProfiler; Cerep BioPrint panel)
T4 sequence (P52333 1-1124): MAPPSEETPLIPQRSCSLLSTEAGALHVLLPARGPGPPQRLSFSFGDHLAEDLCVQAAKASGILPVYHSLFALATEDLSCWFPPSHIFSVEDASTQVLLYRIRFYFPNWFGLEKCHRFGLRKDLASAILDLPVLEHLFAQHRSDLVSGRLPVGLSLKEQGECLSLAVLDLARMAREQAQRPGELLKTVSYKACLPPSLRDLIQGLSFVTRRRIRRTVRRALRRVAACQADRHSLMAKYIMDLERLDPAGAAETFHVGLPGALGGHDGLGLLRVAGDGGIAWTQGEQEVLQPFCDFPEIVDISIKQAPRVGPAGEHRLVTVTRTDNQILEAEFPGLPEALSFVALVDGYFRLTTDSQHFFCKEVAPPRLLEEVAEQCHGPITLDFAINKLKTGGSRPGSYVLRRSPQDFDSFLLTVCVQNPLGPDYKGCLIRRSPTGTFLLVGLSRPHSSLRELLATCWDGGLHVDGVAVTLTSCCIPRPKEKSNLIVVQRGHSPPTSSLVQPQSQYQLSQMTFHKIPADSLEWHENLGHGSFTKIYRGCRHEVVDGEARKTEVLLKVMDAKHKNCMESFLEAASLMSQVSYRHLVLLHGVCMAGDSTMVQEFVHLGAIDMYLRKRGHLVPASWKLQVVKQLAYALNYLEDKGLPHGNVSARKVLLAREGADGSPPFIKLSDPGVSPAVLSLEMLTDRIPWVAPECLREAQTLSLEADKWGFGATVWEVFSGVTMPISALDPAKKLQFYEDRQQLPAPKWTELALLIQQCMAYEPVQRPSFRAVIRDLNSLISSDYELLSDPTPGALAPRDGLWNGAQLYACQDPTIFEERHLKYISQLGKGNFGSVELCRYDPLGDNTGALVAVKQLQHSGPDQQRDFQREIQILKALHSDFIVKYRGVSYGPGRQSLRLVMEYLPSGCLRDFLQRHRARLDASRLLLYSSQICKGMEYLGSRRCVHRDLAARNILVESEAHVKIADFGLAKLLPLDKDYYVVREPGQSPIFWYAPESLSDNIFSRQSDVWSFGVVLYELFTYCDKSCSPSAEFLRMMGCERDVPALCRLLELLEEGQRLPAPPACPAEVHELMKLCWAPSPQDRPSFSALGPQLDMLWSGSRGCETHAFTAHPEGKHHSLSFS
How it was run: as §1

[5] = target: T5, LOK (Homo sapiens, UniProt O94804); settings: read-out: percentage of control activity (POC), LOK
T5 construct: purchased Eurofins Pharma Discovery Services (KinaseProfiler; Cerep BioPrint panel)
T5 sequence (O94804 whole entry): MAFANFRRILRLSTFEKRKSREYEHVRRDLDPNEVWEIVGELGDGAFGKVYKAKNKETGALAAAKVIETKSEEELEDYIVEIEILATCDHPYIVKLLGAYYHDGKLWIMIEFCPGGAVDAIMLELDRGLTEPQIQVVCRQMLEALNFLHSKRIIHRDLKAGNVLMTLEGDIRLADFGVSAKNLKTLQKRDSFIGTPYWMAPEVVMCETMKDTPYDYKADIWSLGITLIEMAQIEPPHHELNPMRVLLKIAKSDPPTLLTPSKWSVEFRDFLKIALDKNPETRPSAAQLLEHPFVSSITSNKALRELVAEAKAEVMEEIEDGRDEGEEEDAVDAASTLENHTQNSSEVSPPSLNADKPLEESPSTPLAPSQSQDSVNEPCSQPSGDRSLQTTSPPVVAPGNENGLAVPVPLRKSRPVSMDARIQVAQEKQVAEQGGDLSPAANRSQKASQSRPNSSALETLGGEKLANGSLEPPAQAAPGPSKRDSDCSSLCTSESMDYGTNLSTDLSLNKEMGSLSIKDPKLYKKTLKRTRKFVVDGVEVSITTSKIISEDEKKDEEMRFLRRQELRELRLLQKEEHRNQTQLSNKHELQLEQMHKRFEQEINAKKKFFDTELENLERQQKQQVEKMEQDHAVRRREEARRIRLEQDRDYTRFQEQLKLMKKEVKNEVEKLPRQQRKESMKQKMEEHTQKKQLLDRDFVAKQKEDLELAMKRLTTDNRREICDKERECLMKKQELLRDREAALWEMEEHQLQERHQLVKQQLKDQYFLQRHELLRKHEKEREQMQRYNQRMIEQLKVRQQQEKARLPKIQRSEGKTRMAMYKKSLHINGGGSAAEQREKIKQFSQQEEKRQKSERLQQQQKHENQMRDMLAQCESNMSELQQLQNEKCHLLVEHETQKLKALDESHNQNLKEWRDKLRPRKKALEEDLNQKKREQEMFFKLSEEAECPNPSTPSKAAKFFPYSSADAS
How it was run: as §1

[6] = target: T6, PKCα (Homo sapiens, UniProt P17252); settings: read-out: percentage of control activity (POC), PKCα
T6 construct: purchased Eurofins Pharma Discovery Services (KinaseProfiler; Cerep BioPrint panel)
How it was run: as §1

[7] = target: T7, Plk3 (Homo sapiens, UniProt Q9H4B4); settings: read-out: percentage of control activity (POC), Plk3
T7 construct: purchased Eurofins Pharma Discovery Services (KinaseProfiler; Cerep BioPrint panel)
T7 sequence (Q9H4B4 whole entry): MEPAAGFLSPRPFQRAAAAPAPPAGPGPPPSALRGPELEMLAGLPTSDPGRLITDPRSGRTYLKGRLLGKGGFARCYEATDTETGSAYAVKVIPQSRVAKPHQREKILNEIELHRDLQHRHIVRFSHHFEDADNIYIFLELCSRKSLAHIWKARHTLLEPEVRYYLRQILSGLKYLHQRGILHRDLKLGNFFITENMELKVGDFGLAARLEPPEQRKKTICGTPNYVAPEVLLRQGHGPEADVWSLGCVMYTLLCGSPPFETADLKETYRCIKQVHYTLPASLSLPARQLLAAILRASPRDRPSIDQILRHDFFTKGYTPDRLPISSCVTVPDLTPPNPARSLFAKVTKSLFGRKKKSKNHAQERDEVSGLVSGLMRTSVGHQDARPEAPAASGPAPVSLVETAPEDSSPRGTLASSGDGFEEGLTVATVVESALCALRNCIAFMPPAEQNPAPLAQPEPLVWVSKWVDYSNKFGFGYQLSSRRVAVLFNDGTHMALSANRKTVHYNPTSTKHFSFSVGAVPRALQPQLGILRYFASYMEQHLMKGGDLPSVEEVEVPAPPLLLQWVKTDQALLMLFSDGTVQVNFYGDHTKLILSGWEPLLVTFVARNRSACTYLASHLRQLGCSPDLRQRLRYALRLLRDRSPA
How it was run: as §1

[8] = target: T8, Rse (Homo sapiens, UniProt Q06418); settings: read-out: percentage of control activity (POC), Rse
T8 construct: purchased Eurofins Pharma Discovery Services (KinaseProfiler; Cerep BioPrint panel)
T8 sequence (Q06418 41-890): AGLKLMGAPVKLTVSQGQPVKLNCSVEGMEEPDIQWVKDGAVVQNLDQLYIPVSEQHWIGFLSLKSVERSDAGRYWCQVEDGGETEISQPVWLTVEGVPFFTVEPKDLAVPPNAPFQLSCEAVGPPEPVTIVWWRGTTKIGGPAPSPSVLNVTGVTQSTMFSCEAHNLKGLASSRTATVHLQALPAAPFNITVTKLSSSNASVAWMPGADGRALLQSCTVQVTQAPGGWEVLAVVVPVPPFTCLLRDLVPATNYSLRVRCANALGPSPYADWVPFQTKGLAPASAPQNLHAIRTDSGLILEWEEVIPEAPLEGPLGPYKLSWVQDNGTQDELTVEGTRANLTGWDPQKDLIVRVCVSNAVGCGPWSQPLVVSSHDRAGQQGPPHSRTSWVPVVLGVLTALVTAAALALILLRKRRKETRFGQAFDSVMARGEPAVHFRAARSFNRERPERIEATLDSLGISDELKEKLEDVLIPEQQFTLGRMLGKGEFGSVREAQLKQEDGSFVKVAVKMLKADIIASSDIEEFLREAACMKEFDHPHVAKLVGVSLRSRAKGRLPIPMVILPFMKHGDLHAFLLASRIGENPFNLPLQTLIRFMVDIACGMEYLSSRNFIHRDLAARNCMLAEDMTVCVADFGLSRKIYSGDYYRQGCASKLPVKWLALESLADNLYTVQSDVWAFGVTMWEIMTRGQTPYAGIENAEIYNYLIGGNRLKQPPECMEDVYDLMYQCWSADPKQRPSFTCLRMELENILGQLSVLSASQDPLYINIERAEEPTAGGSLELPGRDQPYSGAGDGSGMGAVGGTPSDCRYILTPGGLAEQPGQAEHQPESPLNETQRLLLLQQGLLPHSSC
How it was run: as §1

Row | remaining activity at 10 µM [1] [%] | remaining activity at 10 µM [2] [%] | remaining activity at 10 µM [3] [%] | remaining activity at 10 µM [4] [%] | remaining activity at 10 µM [5] [%] | remaining activity at 10 µM [6] [%] | remaining activity at 10 µM [7] [%] | remaining activity at 10 µM [8] [%] | SMILES
1 | 104 | 115 | 100 | 102 | 107 | 106 | 111 | 109 | CC(C)(C)N1CCC(c2cc(-c3ccc(F)cc3Cl)c3cc[n+]([O-])c(-c4c(Cl)cccc4Cl)c3n2)CC1 [compound 2]
2 | 96 | 104 | 97 | 100 | 112 | 95 | 101 | 99 | Cc1ccc(C(=O)NCC2CC2)cc1-c1ccc2c(c1)NC(=O)C21CCCC1 [compound 3]
3 | 50 | 101 | 99 | 99 | 135 | 102 | 104 | 107 | COc1c(NC(=O)c2ccc(C)c(-c3nnc4c(NCC(C)(C)C)nccn34)c2)cc(C(C)(C)C)cc1NS(C)(=O)=O [compound 7, reference compound]

Row | SMILES | remaining activity at 10 µM [1] [%] | remaining activity at 10 µM [2] [%] | remaining activity at 10 µM [3] [%] | remaining activity at 10 µM [4] [%] | remaining activity at 10 µM [5] [%] | remaining activity at 10 µM [6] [%] | remaining activity at 10 µM [7] [%] | remaining activity at 10 µM [8] [%]
4 | Cn1cc(-c2cccc(-c3nc(C(=O)NC4C5CC6CC4CC(O)(C6)C5)c(N)nc3N)c2)cn1 (stereo not shown) [compound 4] | 66 | 95 | 81 | 89 | 109 | 85 | 95 | 92
5 | CS(=O)(=O)N1CCN(c2ccc(Nc3ncc(C(N)=O)c(NC4CC4)n3)cc2)CC1 [compound 5] | 2 | 71 | 10 | -2 | 14 | 38 | 63 | 33
